Test results as given in the supplement of paper PMC10307832.

Columns and labels:
Test in all cases: relative viability (nuclei count vs DMSO), 5 days (fraction); higher = more cells survive
Omipalisib + Trametinib = compound: COc1ncc(-c2ccc3nccc(-c4ccnnc4)c3c2)cc1NS(=O)(=O)c1ccc(F)cc1F [Omipalisib] + CC(=O)Nc1cccc(-n2c(=O)n(C3CC3)c(=O)c3c(Nc4ccc(I)cc4F)n(C)c(=O)c(C)c32)c1 [Trametinib] (partner 0.02 µM)
Procedure, shortened: (§1)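 Lung cancer cell lines were seeded in 1536-well plates and dosed by pin tool the next day, with either a single drug or a fixed anchor-drug dose combined with five library-drug doses (not always all listed) spaced in √10 steps. Five days later, one step fixed the cells and stained their nuclei (final 0.05% Triton X-100, 1% formaldehyde, 1 ug/ml Hoechst), and nuclei were counted on 4× images. Relative viability is the nuclei count in treated wells divided by the count in vehicle wells, and each value is the median of duplicate plates.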

Omipalisib + Foretinib = compound: COc1ncc(-c2ccc3nccc(-c4ccnnc4)c3c2)cc1NS(=O)(=O)c1ccc(F)cc1F [Omipalisib] + COc1cc2c(Oc3ccc(NC(=O)C4(C(=O)Nc5ccc(F)cc5)CC4)cc3F)ccnc2cc1OCCCN1CCOCC1 [Foretinib] (partner 0.25 µM)
Procedure, shortened: as §1

Omipalisib + Crizotinib = compound: COc1ncc(-c2ccc3nccc(-c4ccnnc4)c3c2)cc1NS(=O)(=O)c1ccc(F)cc1F [Omipalisib] + C[C@@H](Oc1cc(-c2cnn(C3CCNCC3)c2)cnc1N)c1c(Cl)ccc(F)c1Cl [Crizotinib] (partner 1 µM)
Procedure, shortened: as §1

Omipalisib + Linsitinib = compound: COc1ncc(-c2ccc3nccc(-c4ccnnc4)c3c2)cc1NS(=O)(=O)c1ccc(F)cc1F [Omipalisib] + C[C@]1(O)C[C@@H](c2nc(-c3ccc4ccc(-c5ccccc5)nc4c3)c3c(N)nccn32)C1 [Linsitinib] (partner 1 µM)
Procedure, shortened: as §1

Omipalisib + Phenformin = compound: COc1ncc(-c2ccc3nccc(-c4ccnnc4)c3c2)cc1NS(=O)(=O)c1ccc(F)cc1F [Omipalisib] + N=C(N)NC(=N)NCCc1ccccc1 [Phenformin] (partner 250 µM)
Procedure, shortened: as §1

Omipalisib + Pemetrexed = compound: COc1ncc(-c2ccc3nccc(-c4ccnnc4)c3c2)cc1NS(=O)(=O)c1ccc(F)cc1F [Omipalisib] + Nc1nc2[nH]cc(CCc3ccc(C(=O)N[C@@H](CCC(=O)O)C(=O)O)cc3)c2c(=O)[nH]1 [Pemetrexed] (partner 0.2 µM)
Procedure, shortened: as §1

Cell Line | relative viability (Omipalisib + Trametinib; first compound 0.0003 µM) | relative viability (Omipalisib + Trametinib; first compound 0.003 µM) | relative viability (Omipalisib + Trametinib; first compound 0.03 µM) | relative viability (Omipalisib + Foretinib; first compound 0.0003 µM) | relative viability (Omipalisib + Foretinib; first compound 0.003 µM) | relative viability (Omipalisib + Foretinib; first compound 0.03 µM) | relative viability (Omipalisib + Crizotinib; first compound 0.0003 µM) | relative viability (Omipalisib + Crizotinib; first compound 0.003 µM) | relative viability (Omipalisib + Crizotinib; first compound 0.03 µM) | relative viability (Omipalisib + Linsitinib; first compound 0.0003 µM) | relative viability (Omipalisib + Linsitinib; first compound 0.003 µM) | relative viability (Omipalisib + Linsitinib; first compound 0.03 µM) | relative viability (Omipalisib + Phenformin; first compound 0.0003 µM) | relative viability (Omipalisib + Phenformin; first compound 0.003 µM) | relative viability (Omipalisib + Phenformin; first compound 0.03 µM) | relative viability (Omipalisib + Pemetrexed; first compound 0.0003 µM) | relative viability (Omipalisib + Pemetrexed; first compound 0.003 µM) | relative viability (Omipalisib + Pemetrexed; first compound 0.03 µM)
201T | 0.681 | 0.658 | 0.465 | 1.12 | 0.864 | 0.308 | 0.988 | 1.05 | 0.731 | 1.03 | 0.916 | 0.769 | 0.47 | 0.421 | 0.338 | 0.342 | 0.309 | 0.266
A-427 | 0.665 | 0.38 | 0.358 | 0.865 | 1.01 | 0.718 | 0.818 | 0.736 | 0.639 | 1.11 | 1.09 | 0.968 | 0.382 | 0.224 | 0.337 | 0.983 | 0.922 | 0.931
ABC-1 |  |  |  | 1.05 | 0.824 | 0.561 | 0.811 | 0.899 | 0.49 | 0.771 | 0.572 | 0.586 | 0.221 | 0.234 | 0.224 |  |  | 
BEN | 0.828 | 0.671 | 0.602 | 0.518 | 0.403 | 0.538 | 0.635 | 0.531 | 0.464 | 0.669 | 0.497 | 0.554 | 0.259 | 0.277 | 0.27 | 0.694 | 0.581 | 0.569
CAL-12T | 0.299 | 0.205 | 0.173 | 1.26 | 1.06 | 0.684 | 0.574 | 0.676 | 0.436 | 0.75 | 0.822 | 0.513 | 0.543 | 0.573 | 0.361 | 1.17 | 1.15 | 0.721
COR-L23 | 0.496 | 0.342 | 0.249 | 0.974 | 1.01 | 0.719 | 0.794 | 0.667 | 0.292 | 0.813 | 0.771 | 0.38 | 0.461 | 0.508 | 0.406 | 0.2 | 0.2 | 0.197
COR-L 105 | 0.469 | 0.423 | 0.414 | 1.17 | 1.01 | 0.896 | 0.799 | 0.779 | 0.558 | 0.963 | 0.835 | 0.717 | 0.468 | 0.458 | 0.289 | 0.995 | 1.11 | 0.942
ChaGo-K-1 | 0.818 | 0.747 | 0.666 | 0.852 | 0.75 | 0.715 | 1.04 | 1.09 | 1.07 |  |  |  | 0.486 | 0.401 | 0.406 | 0.273 | 0.254 | 0.255
EKVX | 0.42 | 0.347 | 0.152 | 0.649 | 0.801 | 0.183 | 0.934 | 0.824 | 0.402 | 1.06 | 0.76 | 0.456 | 0.228 | 0.254 | 0.15 | 0.491 | 0.437 | 0.264
EMC-BAC-2 | 0.569 | 0.571 | 0.436 | 0.91 | 0.637 | 0.482 | 0.744 | 0.665 | 0.395 | 0.797 | 0.693 | 0.438 | 0.476 | 0.368 | 0.334 | 0.481 | 0.463 | 0.418
EPLC-272H | 0.275 | 0.256 | 0.14 | 0.574 | 0.388 | 0.196 | 1.08 | 0.794 | 0.325 | 1.38 | 0.893 | 0.248 | 0.294 | 0.253 | 0.193 | 0.34 | 0.39 | 0.235
H3255 | 0.56 | 0.421 | 0.277 | 0.731 | 0.669 | 0.494 | 0.859 | 0.811 | 0.421 | 0.999 | 0.888 | 0.485 | 0.365 | 0.39 | 0.269 | 0.576 | 0.577 | 0.469
HARA | 0.694 | 0.301 | 0.188 | 0.928 | 0.897 | 0.26 | 1.09 | 1.02 | 0.395 | 0.949 | 0.691 | 0.275 | 0.539 | 0.334 | 0.332 | 0.274 | 0.272 | 0.21
HCC-15 | 0.32 | 0.207 | 0.165 | 0.944 | 0.814 | 0.721 | 0.793 | 0.734 | 0.655 | 0.929 | 0.77 | 0.799 | 0.427 | 0.372 | 0.306 | 0.23 | 0.213 | 0.209
HCC-44 | 0.983 | 0.921 | 0.468 |  |  |  | 0.783 | 0.74 | 0.308 | 0.658 | 0.457 | 0.282 | 0.202 | 0.141 | 0.102 | 0.68 | 0.682 | 0.694
